From US4753925A, “Antibacterial 1,7-diamino-1,4-dihydro-4-oxo-3-quinolinecarboxylic acids” (Bayer Aktiengesellschaft, priority 1984, dated 1988)
Values after ≈ are worked out from the molar mass of the structure shown.

Legend:
[1] = Serum levels in mice following subcutaneous administration; assay type: in vivo; conditions: mouse, sc, 5 mg/kg, read-out: Serum level; for concentration at 0.25 h: 15'; for concentration at 0.5 h: 30'
Description: (§1) In most cases the values are identical, but for some strains they are about 2-4 times better.
Serum levels in mice following subcutaneous
administration of 5 mg/kg

[2] = Pharmacokinetics in mice following oral and parenteral administration; assay type: in vivo; conditions: versus II
From the text: as §1

E. coli 455/7 = assay: MIC, agar dilution test/Isosensitest medium; assay type: cell-based; conditions: Escherichia coli, agar dilution test, Isosensitest medium
From the text: as §1
(§2) Agar dilution test/Isosensitest medium

Proteus mir. 8223 = assay: MIC, agar dilution test/Isosensitest medium; assay type: cell-based; conditions: agar dilution test, Isosensitest medium
From the text: as §1, §2

E. coli A 261 = assay: MIC, agar dilution test/Isosensitest medium; assay type: cell-based; conditions: Escherichia coli, A261, agar dilution test, Isosensitest medium
From the text: as §1, §2

Pseudomonas W. = assay: MIC, agar dilution test/Isosensitest medium; assay type: cell-based; conditions: agar dilution test, Isosensitest medium
From the text: as §1, §2

Klebsiella 6179 = assay: MIC, agar dilution test/Isosensitest medium; assay type: cell-based; conditions: agar dilution test, Isosensitest medium
From the text: as §1, §2

Klebsiella 57 USA = assay: MIC, agar dilution test/Isosensitest medium; assay type: cell-based; conditions: agar dilution test, Isosensitest medium
From the text: as §1, §2

Proteus mir. 8175 = assay: MIC, agar dilution test/Isosensitest medium; assay type: cell-based; conditions: agar dilution test, Isosensitest medium
From the text: as §1, §2

Providencia 12052 = assay: MIC, agar dilution test/Isosensitest medium; assay type: cell-based; conditions: agar dilution test, Isosensitest medium
From the text: as §1, §2

[3] = Serum levels in mice after oral administration; assay type: in vivo; conditions: mouse, 5 mg/kg, read-out: Serum level; for concentration at 0.25 h: 15'; for concentration at 0.5 h: 30'
From the text: as §1
Serum levels in mice after oral administration

strains of Table 1 = assay: MIC comparison over the strains of Table 1; assay type: cell-based; conditions: versus II
From the text: as §1, §2

Row | Compound | concentration at 0.25 h [1] | concentration at 0.5 h [1] | concentration at 1 h [1] | concentration at 2 h [1] | Bioavailability compared with the comparison product ([2]; following oral and parenteral administration) | Serum levels compared with the comparison product ([2]; mice, oral and parenteral) | MIC (E. coli 455/7) | MIC (Proteus mir. 8223) | MIC (E. coli A 261) | MIC (Pseudomonas W.) | MIC (Klebsiella 6179) | MIC (Klebsiella 57 USA) | MIC (Proteus mir. 8175) | MIC (Providencia 12052) | concentration at 0.25 h [3] | concentration at 0.5 h [3] | concentration at 1 h [3] | concentration at 2 h [3] | MIC values compared with II: times better (strains of Table 1; for some strains) | MIC values compared with II (strains of Table 1; in most cases)
1 | CNn1cc(C(=O)O)c(=O)c2cc(F)c(N3CCN(C)CC3)c(F)c21 [Example 3] | 1200 ng/mL | 1400 ng/mL | 920 ng/mL | 300 ng/mL | better bioavailability | higher serum levels | 8 µg/mL (≈ 22.7 µM) | 4 µg/mL (≈ 11.4 µM) | 0.06 µg/mL (≈ 0.17 µM) | 1 µg/mL (≈ 2.84 µM) | 0.125 µg/mL (≈ 0.355 µM) | 0.125 µg/mL (≈ 0.355 µM) | 0.25 µg/mL (≈ 0.71 µM) | 4 µg/mL (≈ 11.4 µM) | 900 ng/mL | 1200 ng/mL | 600 ng/mL | 250 ng/mL | 2-4 times | identical
2 | CNn1cc(C(=O)O)c(=O)c2cc(F)c(N3CCN(C)CC3)cc21 [II, reference compound] | 840 ng/mL | 1300 ng/mL | 450 ng/mL | 100 ng/mL | – | – | 8 µg/mL (≈ 23.9 µM) | 4 µg/mL (≈ 12 µM) | 0.06 µg/mL (≈ 0.179 µM) | 1 µg/mL (≈ 2.99 µM) | 0.25 µg/mL (≈ 0.748 µM) | 0.25 µg/mL (≈ 0.748 µM) | 0.125 µg/mL (≈ 0.374 µM) | 16 µg/mL (≈ 47.9 µM) | 700 ng/mL | 580 ng/mL | 320 ng/mL | 100 ng/mL | – | –
